Key:
MNRI mice = assay: Apoplexy model: occlusion of the middle cerebral artery in mice, infarction surface by neutral red staining; assay type: in vivo; settings: application after or before occlusion, as in examples 3 and 4
From the text: In another animal experiment model (apoplexy model) it could be shown (examples 3 and 4) that 2-MTDC as well as salts of 2-MTDC have a cerebroprotective effect.
The following test series deals with the examination of the neuroprotective effect of 2-MTDC-Na in application of 2-MTDC-Na after the ischemia.
Per test group 13 through 16 MNRI mice were employed. The middle cerebral artery of the mice was occluded according to the method of Welsh (F. A. Welsh, T. Sakamoto, A. E. McKee, R. E. Sims, J. Neurochem. 1987, 49, 846-851). For that purpose the mice are anesthetized with tribromoethanol (600 mg/kg body weight, intraperitoneally). Immediately after the anesthesia a small cavity was drilled into the mice cranium to lay open the middle cerebral artery. The strain as well as both arms of the middle cerebral artery were occluded via electro coagulation. Meanwhile the blood heat of the mice was kept on 37° C.±1° C. by utilizing a heating lamp. Subsequently the mice were kept at a surrounding temperature of 30° C. for another 2 h.
One group of mice was injected intraperitoneally 2-MTDC-Na (200 mg/kg 2-MTDC-Na dissolved in 0.9% NaCl solution) 15 minutes after and another group 60 minutes after the occlusion of the middle cerebral artery. A third group received the vehicle only (0.9% NaCl solution without 2-MTDC-Na).
For the following histologic examination 2 days after the occlusion of the middle cerebral artery the mice were anesthetized again with tribromoethanol and received intraperitoneally applied 0.5 ml of a 1.5% solution of neutral red (toluylene red, Acros Chimica) in addition. The brains were extracted and kept for 24 h in a fixative solution (4% formalin with phosphate buffer at pH 7.4).
The tissue on the surface of the brain which was not colored by neutral red was measured as surface region affected by infarction under utilizing a color analysis system (Kontron, Eching, Germany) (C. Backhauβ, C. Karkoutly, M. Welsh, J. Krieglstein, J. Pharmacol Toxicol Methods, 1992, 27 (2), 27-32).
The execution of the test according to example 3 was repeated whereas 2-MTDC-Na was applied one hour before the occlusion of the middle cerebral artery (MCA-O: occlusion of the middle cerebral artery).

dopaminergic neurons = assay: Intrastriatal sodium malonate lesion in rats; transmitters and metabolites in striatum and substantia nigra by HPLC; assay type: in vivo, Wistar rats; settings: for activity of dopaminergic neurons (3-methoxytyramine concentration): lysine salt injected intraperitoneally four to five days before measuring, rats
striatum of rats = settings: seven days after injecting the malonate; cited from earlier work

With `CC1(C(=O)O)N[C@H](C(=O)O)CS1` (mixture of isomers) [2-MTDC, (2RS,4R)-2-methylthiazolidine-2,4-dicarboxylic acid] the “infarction extent induced by occlusion of the cerebral artery (test series of examples 3 and 4)” value (shortened to “infarction extent induced by occlusion”) (MNRI mice) was “capable of reducing the infarction extent”.
With `CC1(C(=O)O)NC(C(=O)O)CS1.NCCCCC(N)C(=O)O.NCCCCC(N)C(=O)O` (centres unmarked) [2-MTDC-lys] the “infarction extent induced by occlusion” value (MNRI mice; listed as lysine salts of 2-MTDC) was “capable of reducing the infarction extent”, the “influence on the concentration of dopamine, DOPAC, HVA” value (dopaminergic neurons; 2-MTDC-lys solely (no malonate), 2x0.8 mmol/kg i.p., four days after last application) was “no influence” and the “effect on dopaminergic versus serotonergic neurons (5-HT, 5-HIAA)” value (dopaminergic neurons; chosen dose rate, examination period of four days from last application) was “affects obviously dopaminergic neurons but not serotonergic neurons”. The “activity of dopaminergic neurons (3-methoxytyramine concentration)” value (dopaminergic neurons) was “long persistent activation”, the “activity of dopaminergic neurons (3-methoxytyramine concentration)” value (dopaminergic neurons; listed as lysine salt of 2-MTDC) was “intense activation of the dopaminergic neurons” and the “effect of malonate on the reduction of dopamine and dopamine metabolite concentrations (neuroprotection)” value (dopaminergic neurons; pretreatment 2x0.8 mmol/kg i.p., 2 μmol sodium malonate into left striatum, four days after last application) was “prevents the toxic effect of malonate”. For the same molecule, the “neurodegeneration of nerve ends in the striatum and cell bodies in the substantia nigra” value (dopaminergic neurons; treatment before malonate (prophylactic)) was “prevents the neurodegeneration”.
For `C[C@]1(C(=O)O)N[C@H](C(=O)O)CS1` [(2S,4R)-2-methylthiazolidine-2,4-dicarboxylic acid], the “infarction extent induced by occlusion” value (MNRI mice) was “capable of reducing the infarction extent”.
For `C[C@@]1(C(=O)O)N[C@H](C(=O)O)CS1` [(2R,4R)-2-methylthiazolidine-2,4-dicarboxylic acid], the “infarction extent induced by occlusion” value (MNRI mice) was “capable of reducing the infarction extent”.
In the case of `O=C([O-])CC(=O)[O-].[Na+].[Na+]` [malonate, sodium malonate], the “concentration of dopamine in the striatum compared to the contralateral striatum” value (striatum of rats) is given as 6%.
